From patent US20250012799A1, “SARS-COV-2 POLYPEPTIDES AND USES THEREOF” (IAMA FRANCE, priority 2021, published 2025)
Read-outs that look alike come from different tables or passages of the source.

Key:
[1] = tested on: NKp44L membrane expression on Calu-3 cells; format: cell-based, human; conditions: for Induction of NKp44L membrane expression: Calu-3, individual peptides/pools of sub-pools no 8.2 and no 8.3; for induction of the expression of NKp44L (in words): Calu-3 lung cell line
[2] = tested on: NKp44L membrane expression on A549: hu ACE-2 cells; format: cell-based, human; conditions: for Induction of NKp44L membrane expression: A549, individual peptides/pools of sub-pools no 8.2 and no 8.3; for induction of the expression of NKp44L (in words): A549: hu ACE-2 lung cell line

## igvtqnvlyenqklianq [Spi228]
[1]; Experiment no 1
  Induction of NKp44L membrane expression: 91
[1]; Experiment no 2
  Induction of NKp44L membrane expression: 103
[1]; Experiment no 3
  Induction of NKp44L membrane expression: 117
[2]; Experiment no 1
  Induction of NKp44L membrane expression: 75
[2]; Experiment no 2
  Induction of NKp44L membrane expression: 82
[2]; Experiment no 3
  Induction of NKp44L membrane expression: 89

## klianqfnsaigkiqdsl [Spi231]
[1]; Experiment no 1
  Induction of NKp44L membrane expression: 2250
[1]; Experiment no 2
  Induction of NKp44L membrane expression: 2406
[1]; Experiment no 3
  Induction of NKp44L membrane expression: 2207
[1]
  induction of the expression of NKp44L (in words): induce the expression of NKp44L
[2]
  induction of the expression of NKp44L (in words): induce the expression of NKp44L
[2]; Experiment no 1
  Induction of NKp44L membrane expression: 1308
[2]; Experiment no 2
  Induction of NKp44L membrane expression: 1232
[2]; Experiment no 3
  Induction of NKp44L membrane expression: 1199

## nqfnsaigkiqdslssta [Spi232]
[1]; Experiment no 1
  Induction of NKp44L membrane expression: 421
[1]; Experiment no 2
  Induction of NKp44L membrane expression: 301
[1]; Experiment no 3
  Induction of NKp44L membrane expression: 412
[2]; Experiment no 1
  Induction of NKp44L membrane expression: 101
[2]; Experiment no 2
  Induction of NKp44L membrane expression: 127
[2]; Experiment no 3
  Induction of NKp44L membrane expression: 148

## qmayrfngigvtqnvlye [Spi226]
[1]; Experiment no 1
  Induction of NKp44L membrane expression: 103
[1]; Experiment no 2
  Induction of NKp44L membrane expression: 112
[1]; Experiment no 3
  Induction of NKp44L membrane expression: 119
[2]; Experiment no 1
  Induction of NKp44L membrane expression: 53
[2]; Experiment no 2
  Induction of NKp44L membrane expression: 59
[2]; Experiment no 3
  Induction of NKp44L membrane expression: 71

## qnvlyenqkliangfnsa [Spi229]
[1]; Experiment no 1
  Induction of NKp44L membrane expression: 2103
[1]; Experiment no 2
  Induction of NKp44L membrane expression: 1889
[1]; Experiment no 3
  Induction of NKp44L membrane expression: 1875
[1]
  induction of the expression of NKp44L (in words): induce the expression of NKp44L
[2]
  induction of the expression of NKp44L (in words): induce the expression of NKp44L
[2]; Experiment no 1
  Induction of NKp44L membrane expression: 1167
[2]; Experiment no 2
  Induction of NKp44L membrane expression: 1021
[2]; Experiment no 3
  Induction of NKp44L membrane expression: 993

## rfngigvtqnvlyengkl [Spi227]
[1]; Experiment no 1
  Induction of NKp44L membrane expression: 2507
[1]; Experiment no 2
  Induction of NKp44L membrane expression: 2726
[1]; Experiment no 3
  Induction of NKp44L membrane expression: 2592
[1]
  induction of the expression of NKp44L (in words): induce the expression of NKp44L
[2]
  induction of the expression of NKp44L (in words): induce the expression of NKp44L
[2]; Experiment no 1
  Induction of NKp44L membrane expression: 1402
[2]; Experiment no 2
  Induction of NKp44L membrane expression: 1517
[2]; Experiment no 3
  Induction of NKp44L membrane expression: 1538

## yenqklianqfnsaigki [Spi230]
[1]; Experiment no 1
  Induction of NKp44L membrane expression: 2213
[1]; Experiment no 2
  Induction of NKp44L membrane expression: 2403
[1]; Experiment no 3
  Induction of NKp44L membrane expression: 2173
[1]
  induction of the expression of NKp44L (in words): induce the expression of NKp44L
[2]
  induction of the expression of NKp44L (in words): induce the expression of NKp44L
[2]; Experiment no 1
  Induction of NKp44L membrane expression: 1202
[2]; Experiment no 2
  Induction of NKp44L membrane expression: 1198
[2]; Experiment no 3
  Induction of NKp44L membrane expression: 1195
